The NIST ThermoML archive (doi:10.1021/acs.jced.5b00181)

Assay: xn = mol fraction of the nth substance listed
Details: 101 kPa, Liquid; for viscosity: Falling or rolling sphere viscometry; for speed of sound: Frequency=3 MHz, Sing-around technique in a fixed-path interferometer; for mass density: Vibrating tube method

CCn1cc[n+](C)c1.O=S(=O)([N-]S(=O)(=O)C(F)(F)F)C(F)(F)F + CCCO
Details | mass density [kg/m3] | speed of sound [m/s] | viscosity [mPa·s]
278.15 K, x1 = 0.4918 | 1372.4 | 1253.1 | 20.94
278.15 K, x1 = 0.5723 | 1410.18 | 1259.6 | 25.39
278.15 K, x1 = 0.7026 | 1459.58 | 1268.7 | 34.81
278.15 K, x1 = 0.8055 | 1491.11 | 1274.9 | 44.9
278.15 K, x1 = 0.9025 | 1516.35 | 1280 | 56.99
298.15 K, x1 = 0.0519 | 914.24 | 1184.8 | 2.639
298.15 K, x1 = 0.1037 | 1005.11 | 1175.1 | 3.53
298.15 K, x1 = 0.2013 | 1134.16 | 1175.8 | 5.134
298.15 K, x1 = 0.3088 | 1235.5 | 1186.2 | 6.891
298.15 K, x1 = 0.3963 | 1297.78 | 1195.6 | 8.358
298.15 K, x1 = 0.4918 | 1352.18 | 1205 | 10.6
298.15 K, x1 = 0.5723 | 1389.87 | 1212.2 | 12.63
298.15 K, x1 = 0.7026 | 1439.2 | 1222.2 | 16.89
298.15 K, x1 = 0.8055 | 1470.7 | 1228.9 | 21.07
298.15 K, x1 = 0.9025 | 1495.92 | 1234.3 | 25.97
318.15 K, x1 = 0.0519 | 896.79 | 1124.1 | 1.656
318.15 K, x1 = 0.1037 | 986.91 | 1119.3 | 2.083
318.15 K, x1 = 0.2013 | 1115.01 | 1124.8 | 2.938
318.15 K, x1 = 0.3088 | 1215.8 | 1137.8 | 3.978
318.15 K, x1 = 0.3963 | 1277.87 | 1148.3 | 4.994
318.15 K, x1 = 0.4918 | 1332.15 | 1158.9 | 6.245
318.15 K, x1 = 0.5723 | 1369.81 | 1166.8 | 7.454
318.15 K, x1 = 0.7026 | 1419.12 | 1177.7 | 9.792
318.15 K, x1 = 0.8055 | 1450.62 | 1185 | 11.97
318.15 K, x1 = 0.9025 | 1475.84 | 1191 | 14.58
338.15 K, x1 = 0.0519 | 878.72 | 1064.4 | 1.117
338.15 K, x1 = 0.1037 | 968.2 | 1064.1 | 1.389
338.15 K, x1 = 0.2013 | 1095.6 | 1074.6 | 1.956
338.15 K, x1 = 0.3088 | 1196.06 | 1090.4 | 2.656
338.15 K, x1 = 0.3963 | 1258.02 | 1102.6 | 3.333
338.15 K, x1 = 0.4918 | 1312.29 | 1114.4 | 4.156
338.15 K, x1 = 0.5723 | 1349.96 | 1123.2 | 4.931
338.15 K, x1 = 0.7026 | 1399.28 | 1135.3 | 6.395
338.15 K, x1 = 0.8055 | 1430.83 | 1143.2 | 7.634
338.15 K, x1 = 0.9025 | 1456.06 | 1149.7 | 9.201

CCCC[n+]1ccn(C)c1.O=S(=O)([N-]S(=O)(=O)C(F)(F)F)C(F)(F)F + CCCO
Details | mass density [kg/m3] | speed of sound [m/s] | viscosity [mPa·s]
278.15 K, x1 = 0.0508 | 926.62 | 1252.2 | 4.722
278.15 K, x1 = 0.0949 | 1002.03 | 1241 | 6.623
278.15 K, x1 = 0.1989 | 1130.78 | 1235.7 | 11.44
278.15 K, x1 = 0.2976 | 1214 | 1239.7 | 16.84
278.15 K, x1 = 0.3912 | 1272.23 | 1245.7 | 22.98
278.15 K, x1 = 0.4852 | 1317.37 | 1250.9 | 31.14
278.15 K, x1 = 0.5929 | 1358.04 | 1256.8 | 42.15
278.15 K, x1 = 0.692 | 1388.04 | 1261.7 | 56.15
278.15 K, x1 = 0.7968 | 1414.14 | 1266.2 | 76.57
278.15 K, x1 = 0.903 | 1436.28 | 1270.3 | 102.44
298.15 K, x1 = 0.0508 | 909.64 | 1188.9 | 2.701
298.15 K, x1 = 0.0949 | 984.4 | 1181.4 | 3.573
298.15 K, x1 = 0.1989 | 1112.17 | 1180.9 | 5.908
298.15 K, x1 = 0.2976 | 1194.92 | 1187.6 | 8.374
298.15 K, x1 = 0.3912 | 1252.93 | 1195.6 | 10.88
298.15 K, x1 = 0.4852 | 1297.96 | 1201.7 | 14.14
298.15 K, x1 = 0.5929 | 1338.58 | 1208.6 | 18.55
298.15 K, x1 = 0.692 | 1368.59 | 1214.5 | 23.83
298.15 K, x1 = 0.7968 | 1394.7 | 1219.5 | 30.51
298.15 K, x1 = 0.903 | 1416.85 | 1224 | 39.95
318.15 K, x1 = 0.0508 | 892.29 | 1127.5 | 1.693
318.15 K, x1 = 0.0949 | 966.47 | 1123.7 | 2.187
318.15 K, x1 = 0.1989 | 1093.43 | 1128.2 | 3.491
318.15 K, x1 = 0.2976 | 1175.83 | 1137.6 | 4.677
318.15 K, x1 = 0.3912 | 1233.7 | 1147.2 | 6.173
318.15 K, x1 = 0.4852 | 1278.71 | 1154.6 | 7.805
318.15 K, x1 = 0.5929 | 1319.36 | 1162.5 | 10.1
318.15 K, x1 = 0.692 | 1349.4 | 1169.2 | 12.76
318.15 K, x1 = 0.7968 | 1375.56 | 1174.9 | 15.78
318.15 K, x1 = 0.903 | 1397.74 | 1180.1 | 19.35
338.15 K, x1 = 0.0508 | 874.3 | – | 1.136
338.15 K, x1 = 0.0519 | – | 1066.7 | –
338.15 K, x1 = 0.0949 | 948.03 | – | 1.457
338.15 K, x1 = 0.1037 | – | 1066.7 | –
338.15 K, x1 = 0.1989 | 1074.44 | – | 2.303
338.15 K, x1 = 0.2013 | – | 1076.8 | –
338.15 K, x1 = 0.2976 | 1156.66 | – | 3.004
338.15 K, x1 = 0.3088 | – | 1089 | –
338.15 K, x1 = 0.3912 | 1214.5 | – | 3.93
338.15 K, x1 = 0.3963 | – | 1100 | –
338.15 K, x1 = 0.4852 | 1259.59 | – | 4.908
338.15 K, x1 = 0.4918 | – | 1109.1 | –
338.15 K, x1 = 0.5723 | – | 1118.3 | –
338.15 K, x1 = 0.5929 | 1300.32 | – | 6.258
338.15 K, x1 = 0.692 | 1330.43 | – | 7.446
338.15 K, x1 = 0.7026 | – | 1125.4 | –
338.15 K, x1 = 0.7968 | 1356.65 | – | 9.633
338.15 K, x1 = 0.8055 | – | 1132 | –
338.15 K, x1 = 0.9025 | – | 1137.8 | –
338.15 K, x1 = 0.903 | 1378.89 | – | 11.48

CCCCCC[n+]1ccn(C)c1.O=S(=O)([N-]S(=O)(=O)C(F)(F)F)C(F)(F)F + CCCO
Details | mass density [kg/m3] | speed of sound [m/s] | viscosity [mPa·s]
278.15 K, x1 = 0.048 | 920.02 | 1255.6 | 4.973
278.15 K, x1 = 0.0991 | 1003.18 | 1246.2 | 7.263
278.15 K, x1 = 0.1928 | 1109.95 | 1243.7 | 13.14
278.15 K, x1 = 0.2895 | 1184.1 | 1246.9 | 20.71
278.15 K, x1 = 0.3911 | 1239.44 | 1252 | 30.93
278.15 K, x1 = 0.4877 | 1278.76 | 1256.3 | 44.03
278.15 K, x1 = 0.6028 | 1314.62 | 1261.3 | 63.47
278.15 K, x1 = 0.6999 | 1338.53 | 1265.1 | 87.45
278.15 K, x1 = 0.8016 | 1359.18 | 1268.5 | 117.11
278.15 K, x1 = 0.8999 | 1375.88 | 1271.5 | 155.87
298.15 K, x1 = 0.048 | 903.08 | 1191.5 | 2.872
298.15 K, x1 = 0.0991 | 985.65 | 1186 | 3.917
298.15 K, x1 = 0.1928 | 1091.69 | 1187.7 | 6.538
298.15 K, x1 = 0.2895 | 1165.51 | 1193.5 | 9.707
298.15 K, x1 = 0.3911 | 1220.7 | 1200.4 | 13.78
298.15 K, x1 = 0.4877 | 1259.96 | 1205.8 | 18.59
298.15 K, x1 = 0.6028 | 1295.83 | 1211.8 | 25.71
298.15 K, x1 = 0.6999 | 1319.79 | 1216.2 | 33.17
298.15 K, x1 = 0.8016 | 1340.46 | 1220.1 | 42.83
298.15 K, x1 = 0.8999 | 1357.18 | 1223.3 | 54.58
318.15 K, x1 = 0.048 | 885.86 | 1129.7 | 1.799
318.15 K, x1 = 0.0991 | 967.85 | 1128.2 | 2.374
318.15 K, x1 = 0.1928 | 1073.33 | 1134 | 3.734
318.15 K, x1 = 0.2895 | 1146.9 | 1142.4 | 5.367
318.15 K, x1 = 0.3911 | 1202.04 | 1151 | 7.383
318.15 K, x1 = 0.4877 | 1241.33 | 1157.7 | 9.855
318.15 K, x1 = 0.6028 | 1277.27 | 1164.8 | 13.26
318.15 K, x1 = 0.6999 | 1301.3 | 1169.8 | 16.47
318.15 K, x1 = 0.8016 | 1322.04 | 1174.3 | 20.58
318.15 K, x1 = 0.8999 | 1338.82 | 1178.1 | 25.19
338.15 K, x1 = 0.048 | 868.04 | 1069.2 | 1.203
338.15 K, x1 = 0.0991 | 949.6 | 1071.6 | 1.565
338.15 K, x1 = 0.1928 | 1054.71 | 1081.8 | 2.399
338.15 K, x1 = 0.2895 | 1128.21 | 1092.8 | 3.401
338.15 K, x1 = 0.3911 | 1183.4 | 1103.3 | 4.568
338.15 K, x1 = 0.4877 | 1222.81 | 1111.4 | 5.928
338.15 K, x1 = 0.6028 | 1258.9 | 1119.7 | 7.803
338.15 K, x1 = 0.6999 | 1283.03 | 1125.6 | 9.596
338.15 K, x1 = 0.8016 | 1303.87 | 1130.8 | 11.71
338.15 K, x1 = 0.8999 | 1320.72 | 1135.3 | 13.92
